Experimental data taken from PubChem BioAssay (NCI).
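Following 48 hours of exposure in 96-well plates, responses at five concentrations were used to interpolate endpoints linearly. GI50: concentration for 50% inhibition of growth. TGI: total growth inhibition.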

Assays:
Experiment in all cases: DTP human tumour cell line panel, 48 h
SW-620 colon = system: SW-620 colon
HT29 colon = system: HT29 colon
SN12C renal = system: SN12C renal
M14 melanoma = system: M14 melanoma
ACHN renal = system: ACHN renal
OVCAR-4 ovarian = system: OVCAR-4 ovarian
HL-60(TB) leukemia = system: HL-60(TB) leukemia
MCF7 breast = system: MCF7 breast
OVCAR-8 ovarian = system: OVCAR-8 ovarian
CAKI-1 renal = system: CAKI-1 renal
NCI-H522 lung = system: NCI-H522 lung
HCT-116 colon = system: HCT-116 colon
UACC-257 melanoma = system: UACC-257 melanoma
SF-295 CNS = system: SF-295 CNS
SF-268 CNS = system: SF-268 CNS
A498 renal = system: A498 renal
RXF 393 renal = system: RXF 393 renal
T-47D breast = system: T-47D breast
HOP-62 NSCLC = system: HOP-62 NSCLC
SK-MEL-5 melanoma = system: SK-MEL-5 melanoma
IGROV1 ovarian = system: IGROV1 ovarian
EKVX NSCLC = system: EKVX NSCLC
SK-MEL-28 melanoma = system: SK-MEL-28 melanoma
RPMI-8226 leukemia = system: RPMI-8226 leukemia
KM12 colon = system: KM12 colon
K-562 leukemia = system: K-562 leukemia
OVCAR-3 ovarian = system: OVCAR-3 ovarian
NCI/ADR-RES ovarian = system: NCI/ADR-RES ovarian
SK-MEL-2 melanoma = system: SK-MEL-2 melanoma
SK-OV-3 ovarian = system: SK-OV-3 ovarian
DU-145 prostate = system: DU-145 prostate
HS 578T breast = system: HS 578T breast
BT-549 breast = system: BT-549 breast
NCI-H23 lung = system: NCI-H23 lung
PC-3 prostate = system: PC-3 prostate
SR leukemia = system: SR leukemia
MDA-MB-435 = system: MDA-MB-435
HCT-15 colon = system: HCT-15 colon
786-0 renal = system: 786-0 renal
MALME-3M melanoma = system: MALME-3M melanoma
UO-31 renal = system: UO-31 renal
A549 NSCLC = system: A549 NSCLC
UACC-62 melanoma = system: UACC-62 melanoma
MOLT-4 leukemia = system: MOLT-4 leukemia
SNB-75 CNS = system: SNB-75 CNS
LOX IMVI melanoma = system: LOX IMVI melanoma
COLO 205 colon = system: COLO 205 colon
MDA-MB-231 breast = system: MDA-MB-231 breast
NCI-H460 lung = system: NCI-H460 lung
OVCAR-5 ovarian = system: OVCAR-5 ovarian
SF-539 CNS = system: SF-539 CNS
TK-10 renal = system: TK-10 renal
CCRF-CEM leukemia = system: CCRF-CEM leukemia
HOP-92 NSCLC = system: HOP-92 NSCLC
HCC-2998 colon = system: HCC-2998 colon
U251 CNS = system: U251 CNS
NCI-H226 lung = system: NCI-H226 lung
SNB-19 CNS = system: SNB-19 CNS

With `CN1CCN(Cc2ccc(NC(=O)c3cncc(C#Cc4cnc5[nH]ncc5c4)c3)cc2C(F)(F)F)CC1` the GI50 (SW-620 colon) was 1.65 µM, the TGI (SW-620 colon) was 16.2 µM and the GI50 (HT29 colon) was 1.23 µM. For the same molecule, the TGI (HT29 colon) was 13.7 µM, the GI50 (SN12C renal) was 1.82 µM and the TGI (SN12C renal) was 11.4 µM. The GI50 (M14 melanoma) was 0.524 µM, the TGI (M14 melanoma) was 6.6 µM and the GI50 (ACHN renal) was 0.888 µM. For the same molecule, the TGI (ACHN renal) was 10.8 µM, the GI50 (OVCAR-4 ovarian) was 3.03 µM and the TGI (OVCAR-4 ovarian) was 25.8 µM. The GI50 (HL-60(TB) leukemia) was 0.695 µM, the TGI (HL-60(TB) leukemia) was 13.2 µM and the GI50 (MCF7 breast) was 3.9 µM. The TGI (MCF7 breast) was 18.5 µM, the GI50 (OVCAR-8 ovarian) was 4.26 µM and the TGI (OVCAR-8 ovarian) was 20.3 µM. For the same molecule, the GI50 (CAKI-1 renal) was 0.52 µM, the TGI (CAKI-1 renal) was 10.9 µM and the GI50 (NCI-H522 lung) was 1 µM. For the same molecule, the TGI (NCI-H522 lung) was 11.3 µM, the GI50 (HCT-116 colon) was 0.737 µM and the TGI (HCT-116 colon) was 12.8 µM. It also gave a GI50 (UACC-257 melanoma) of 2.86 µM, a TGI (UACC-257 melanoma) of 17 µM and a GI50 (SF-295 CNS) of 3.13 µM. For the same molecule, the TGI (SF-295 CNS) was 16.3 µM, the GI50 (SF-268 CNS) was 2.54 µM and the TGI (SF-268 CNS) was 16.8 µM. For the same molecule, the GI50 (A498 renal) was 1.96 µM, the TGI (A498 renal) was 15 µM and the GI50 (RXF 393 renal) was 0.612 µM. For the same molecule, the TGI (RXF 393 renal) was 5.68 µM, the GI50 (T-47D breast) was 3.2 µM and the TGI (T-47D breast) was 23 µM. For the same molecule, the GI50 (HOP-62 NSCLC) was 4.06 µM, the TGI (HOP-62 NSCLC) was 16.6 µM and the GI50 (SK-MEL-5 melanoma) was 2.71 µM. For the same molecule, the TGI (SK-MEL-5 melanoma) was 12.6 µM, the GI50 (IGROV1 ovarian) was 0.685 µM and the TGI (IGROV1 ovarian) was 13.1 µM. It also gave a GI50 (EKVX NSCLC) of 2.72 µM, a TGI (EKVX NSCLC) of 18 µM and a GI50 (SK-MEL-28 melanoma) of 1.7 µM. For the same molecule, the TGI (SK-MEL-28 melanoma) was 8.66 µM, the GI50 (RPMI-8226 leukemia) was 4.03 µM and the TGI (RPMI-8226 leukemia) was 50.3 µM. It also gave a GI50 (KM12 colon) of 0.107 µM, a TGI (KM12 colon) of 12.1 µM and a TGI (K-562 leukemia) of over 100 µM. For the same molecule, the GI50 (OVCAR-3 ovarian) was 3.04 µM, the TGI (OVCAR-3 ovarian) was 16.5 µM and the GI50 (NCI/ADR-RES ovarian) was 7.07 µM. The TGI (NCI/ADR-RES ovarian) was 42.1 µM, the GI50 (SK-MEL-2 melanoma) was 0.535 µM and the TGI (SK-MEL-2 melanoma) was 2.78 µM. For the same molecule, the GI50 (SK-OV-3 ovarian) was 1.79 µM, the TGI (SK-OV-3 ovarian) was 13.5 µM and the GI50 (DU-145 prostate) was 1.54 µM. The TGI (DU-145 prostate) was 16.4 µM, the GI50 (HS 578T breast) was 1.27 µM and the TGI (HS 578T breast) was 13.9 µM. For the same molecule, the GI50 (BT-549 breast) was 3.81 µM, the TGI (BT-549 breast) was 16.7 µM and the GI50 (NCI-H23 lung) was 2.28 µM. The TGI (NCI-H23 lung) was 16.6 µM, the GI50 (PC-3 prostate) was 3.7 µM and the TGI (PC-3 prostate) was 60.9 µM. It also gave a GI50 (SR leukemia) of 0.851 µM, a TGI (SR leukemia) of 11.4 µM and a GI50 (MDA-MB-435) of 1.22 µM. For the same molecule, the TGI (MDA-MB-435) was 14.5 µM, the GI50 (HCT-15 colon) was 2.97 µM and the TGI (HCT-15 colon) was 13.6 µM. The GI50 (786-0 renal) was 3.55 µM, the TGI (786-0 renal) was 27 µM and the GI50 (MALME-3M melanoma) was 0.422 µM. For the same molecule, the TGI (MALME-3M melanoma) was 2.81 µM, the GI50 (UO-31 renal) was 3.23 µM and the TGI (UO-31 renal) was 10.8 µM. The GI50 (A549 NSCLC) was 4.31 µM, the TGI (A549 NSCLC) was 39.5 µM and the GI50 (UACC-62 melanoma) was 1.09 µM. The TGI (UACC-62 melanoma) was 5.56 µM, the GI50 (MOLT-4 leukemia) was 1.81 µM and the TGI (MOLT-4 leukemia) was 22.4 µM. For the same molecule, the GI50 (SNB-75 CNS) was 3.4 µM, the TGI (SNB-75 CNS) was 18.3 µM and the GI50 (LOX IMVI melanoma) was 0.618 µM. For the same molecule, the TGI (LOX IMVI melanoma) was 2.38 µM, the GI50 (COLO 205 colon) was 1.87 µM and the TGI (COLO 205 colon) was 13.2 µM. For the same molecule, the GI50 (MDA-MB-231 breast) was 1.11 µM, the TGI (MDA-MB-231 breast) was 6.55 µM and the GI50 (NCI-H460 lung) was 1.3 µM. It also gave a TGI (NCI-H460 lung) of 13.9 µM, a GI50 (OVCAR-5 ovarian) of 3.24 µM and a TGI (OVCAR-5 ovarian) of 17.4 µM. It also gave a GI50 (SF-539 CNS) of 0.925 µM, a TGI (SF-539 CNS) of 4.99 µM and a GI50 (TK-10 renal) of 3.45 µM. For the same molecule, the TGI (TK-10 renal) was 17.9 µM, the GI50 (CCRF-CEM leukemia) was 3.64 µM and the TGI (CCRF-CEM leukemia) was 66.6 µM. It also gave a GI50 (HOP-92 NSCLC) of 1.32 µM, a TGI (HOP-92 NSCLC) of 6.02 µM and a GI50 (HCC-2998 colon) of 4.51 µM. The TGI (HCC-2998 colon) was 18.6 µM, the GI50 (U251 CNS) was 4.36 µM and the TGI (U251 CNS) was 25.4 µM. For the same molecule, the GI50 (NCI-H226 lung) was 0.704 µM, the TGI (NCI-H226 lung) was 9.53 µM and the GI50 (SNB-19 CNS) was 8.72 µM. For the same molecule, the TGI (SNB-19 CNS) was 21.4 µM.
